Results: US20250319063A1, “METHODS AND COMPOUNDS FOR RESTORING MUTANT P53 FUNCTION” (PMV PHARMACEUTICALS, INC., priority 2022, published 2025)
Read-outs that look alike come from different tables or passages of the source.

Assay: Single oral dose plasma pharmacokinetics in fasted and fed healthy subjects (food effect, ethnicity)
Format: in vivo, human
Conditions: for AUC % extrap: both fed and fasted conditions
Experimental: Compound 1 pharmacokinetics were analyzed in healthy subjects administered Compound 1 in a fasted state. A subject was considered fasted if the subject fasted overnight for at least 10 hours and water was permitted ad libitum except for 1 hour before and after drug administration. For fasted subjects, Compound 1 was administered with at least 8 ounces (240 mL) of water. Compound 1 pharmacokinetics were also analyzed in healthy subjects administered Compound 1 in a fed state. A subject was considered fed after consuming a high-fat meal 30 minutes prior to drug administration, and the meal was finished at least 5 minutes prior to drug administration. For both fasted and fed subjects, no food was permitted for at least 4 hours post-dose and water was permitted starting at 1 hour post-dose.
Subjects were healthy, non-smoking male and female Caucasian/non-Asian or Japanese participants 18 to 55 years of age with a BMI between […].
In Part 1 of the study, analysis was performed to compare 1000 mg Compound 1 in fed and fasted states. A dose of 1000 mg of Compound 1 consisted of two 500 mg tablets administered as a single oral dose. The analysis of Part 1 was performed at two separate time points in two different schemes (1A and 1B).
In scheme 1A, at period 1, Compound 1 analyzed in healthy subjects administered 1000 mg Compound 1 (n=3) in a fed state. Following a washout period of 7-9 days, these subjects were then administered 1000 mg Compound 1 in a fasted state.
Separately, in scheme 1B, at period 1, Compound 1 was analyzed in healthy subjects administered 1000 mg Compound 1 (n=3) in a fasted state. Following a washout period of 7-9 days, these subjects were then administered 1000 mg Compound 1 in a fed state.
In Part 2 of the study, analysis was performed to compare 2000 mg Compound 1 in fed and fasted states and also to compared ethnicity of Caucasian/non-Asian subjects and Japanese subjects. A dose of 2000 mg of Compound 1 consisted of four 500 mg tablets administered as a single oral dose.
For Caucasian/non-Asian subjects (n=20) the analysis was performed at two separate time points in two different schemes (2A and 2B). During scheme 2A, at period 1, Compound 1 was analyzed in subjects administered 2000 mg Compound 1 (n=10) in a fed state. Following a washout period of 7-9 days, at period 2, these subjects were then administered 2000 mg Compound 1 in a fasted state. Separately in scheme 2B, at period 1, Compound 1 was analyzed in subjects administered 2000 mg Compound 1 (n=10) in a fasted state. Following a washout period of 7-9 days, at period 2, these subjects were then administered 2000 mg Compound 1 in a fed state.
For Japanese subjects (n=6), Compound 1 pharmacokinetics were analyzed in subjects administered 2000 mg Compound 1 in a fasted state.
Blood for the analysis of study drug (Compound 1) and metabolite (M1) were collected.
Various pharmacokinetic (PK) parameters were determined for each subject. (Tables 9-12 and FIGS. 23-28).
Statistical analysis of Compound 1 plasma PK parameters were evaluated for food effects for Part 1 (Table 11) and Part 2 (Table 12). The log-transformed PK parameters were analyzed using an analysis of variance model with treatment (fed/fasted condition) and period as fixed effects and participant as a random effect.

[1] = 2000 mg oral, Fasted, Caucasian/Non-Asian
[2] = 2000 mg oral, Fed, Caucasian/Non-Asian

CNC(=O)c1ccc(NCC#Cc2cc3c(N[C@@H]4CCN(C)C[C@@H]4F)cccc3n2CC(F)(F)F)c(OC)c1 [Compound 1, 4-((3-(4-(((3S,4R)-3-fluoro-1-methylpiperidin-4-yl)amino)-1-(2,2,2-trifluoroethyl)-1H-indol-2-yl)prop-2-yn-1-yl)amino)-3-methoxy-N-methylbenzamide]
Plasma CL/F and Vz/F, fasted vs fed (1000 mg (Part 1)): slightly higher in the fasted condition | Mean plasma concentrations, fed vs fasted (1000 mg and 2000 mg doses): higher for Caucasian/non-Asian participants under the fed condition compared to the fasted condition | AUC0-inf, % Ratio (Fed/Fasted) (1000 mg oral (Part 1)): 120.25% | AUC0-last, % Ratio (Fed/Fasted) (1000 mg oral (Part 1)): 120.21% | Cmax, % Ratio (Fed/Fasted) (1000 mg oral (Part 1)): 121.75% | AUC% extrap, GeoMean (1000 mg oral, Fasted (Part 1)): 1.61% | CL/F, GeoMean (1000 mg oral, Fasted (Part 1)): 6.67 L/h | λz, GeoMean (1000 mg oral, Fasted (Part 1)): 0.0450 h⁻¹ | AUC0-last, GeoMean (1000 mg oral, Fed (Part 1)): 177 µg·h/mL | AUC% extrap, GeoMean (1000 mg oral, Fed (Part 1)): 1.61% | CL/F, GeoMean (1000 mg oral, Fed (Part 1)): 5.55 L/h | λz, GeoMean (1000 mg oral, Fed (Part 1)): 0.0438 h⁻¹ | increase of peak exposure (Cmax) with food (high-fat meal) vs fasted (1000 mg single dose): approximately 22% | increase of systemic exposure (AUC0-inf and AUC0-last) with food (high-fat meal) vs fasted (1000 mg single dose): approximately 20% | AUC % extrap (1000 mg): less than 5% | AUC0-inf, % Ratio (Fed/Fasted) (2000 mg oral (Part 2)): 178.74% | AUC0-last, % Ratio (Fed/Fasted) (2000 mg oral (Part 2)): 172.94% | Cmax, % Ratio (Fed/Fasted) (2000 mg oral (Part 2)): 183.82% | AUC% extrap, GeoMean [1]: 3.42% | CL/F, GeoMean [1]: 7.71 L/h | λz, GeoMean [1]: 0.0348 h⁻¹ | AUC0-last, GeoMean (2000 mg oral, Fasted, Japanese): 326 µg·h/mL | AUC% extrap, GeoMean (2000 mg oral, Fasted, Japanese): 2.13% | CL/F, GeoMean (2000 mg oral, Fasted, Japanese): 5.92 L/h | λz, GeoMean (2000 mg oral, Fasted, Japanese): 0.0398 h⁻¹ | AUC0-last, GeoMean [2]: 448 µg·h/mL | AUC% extrap, GeoMean [2]: 4.74% | CL/F, GeoMean [2]: 4.18 L/h | λz, GeoMean [2]: 0.0306 h⁻¹ | increase of AUC0-inf with food (high-fat meal) vs fasted (2000 mg single dose): 79% | increase of AUC0-last with food (high-fat meal) vs fasted (2000 mg single dose): 73% | increase of peak exposure (Cmax) with food (high-fat meal) vs fasted (2000 mg single dose): approximately 84% | Plasma CL/F and Vz/F, fasted vs fed (2000 mg, Caucasian/non-Asian (Part 2)): slightly higher in the fasted condition | AUC % extrap (2000 mg, Caucasian/non-Asian): less than 17% | Mean plasma concentrations, Japanese vs Caucasian/non-Asian (2000 mg, fasted): higher in Japanese participants compared to Caucasian/non-Asian participants | Plasma CL/F and Vz/F, Japanese vs Caucasian/non-Asian (2000 mg, fasted): numerically lower for Japanese participants | peak exposure (Cmax) and systemic exposure (AUC), Japanese vs Caucasian/non-Asian (2000 mg, fasted): numerically higher in Japanese participants | maximum exposure (Cmax) and systemic exposure (AUC), fed vs fasted (Caucasian/non-Asian participants): higher under fed conditions (high-fat meal) compared to fasted conditions | AUC(0-t) (both sexes, human, plasma, po, 1000 mg, 1000 mg oral, Fasted (Part 1), read-out: AUC0-24, GeoMean): 97.9 µg·h/mL | AUC(0-t) (both sexes, human, plasma, po, 1000 mg, 1000 mg oral, Fasted (Part 1), read-out: AUC0-96, GeoMean): 148 µg·h/mL | AUC(0-inf) (both sexes, human, plasma, po, 1000 mg, 1000 mg oral, Fasted (Part 1), read-out: AUC0-inf, GeoMean): 150 µg·h/mL | AUC(0-inf) (both sexes, human, plasma, po, 1000 mg, 1000 mg oral, Fasted (Part 1), read-out: AUC0-inf, Geometric Mean (analysis of variance model)): 150 µg·h/mL | AUC(0-t) (both sexes, human, plasma, po, 1000 mg, 1000 mg oral, Fasted (Part 1), read-out: AUC0-last, GeoMean): 147 µg·h/mL | AUC(0-t) (both sexes, human, plasma, po, 1000 mg, 1000 mg oral, Fasted (Part 1), read-out: AUC0-last, Geometric Mean (analysis of variance model)): 147 µg·h/mL | Cmax (both sexes, human, plasma, po, 1000 mg, 1000 mg oral, Fasted (Part 1), read-out: Cmax, GeoMean): 8690 ng/mL | Cmax (both sexes, human, plasma, po, 1000 mg, 1000 mg oral, Fasted (Part 1), read-out: Cmax, Geometric Mean (analysis of variance model)): 8690 ng/mL | Tmax (both sexes, human, plasma, po, 1000 mg, 1000 mg oral, Fasted (Part 1), read-out: Tmax, Median): 2.27 h
